The source of these data is ChEMBL document CHEMBL4007425, “Drug Repurposing of Histone Deacetylase Inhibitors That Alleviate Neutrophilic Inflammation in Acute Lung Injury and Idiopathic Pulmonary Fibrosis via Inhibiting Leukotriene A4 Hydrolase and Blocking LTB4 Biosynthesis” (J Med Chem, 2017).

Assay [1] deals with T1, Polyunsaturated fatty acid 5-lipoxygenase (Homo sapiens) (UniProt P09917).
T1 sequence (whole entry): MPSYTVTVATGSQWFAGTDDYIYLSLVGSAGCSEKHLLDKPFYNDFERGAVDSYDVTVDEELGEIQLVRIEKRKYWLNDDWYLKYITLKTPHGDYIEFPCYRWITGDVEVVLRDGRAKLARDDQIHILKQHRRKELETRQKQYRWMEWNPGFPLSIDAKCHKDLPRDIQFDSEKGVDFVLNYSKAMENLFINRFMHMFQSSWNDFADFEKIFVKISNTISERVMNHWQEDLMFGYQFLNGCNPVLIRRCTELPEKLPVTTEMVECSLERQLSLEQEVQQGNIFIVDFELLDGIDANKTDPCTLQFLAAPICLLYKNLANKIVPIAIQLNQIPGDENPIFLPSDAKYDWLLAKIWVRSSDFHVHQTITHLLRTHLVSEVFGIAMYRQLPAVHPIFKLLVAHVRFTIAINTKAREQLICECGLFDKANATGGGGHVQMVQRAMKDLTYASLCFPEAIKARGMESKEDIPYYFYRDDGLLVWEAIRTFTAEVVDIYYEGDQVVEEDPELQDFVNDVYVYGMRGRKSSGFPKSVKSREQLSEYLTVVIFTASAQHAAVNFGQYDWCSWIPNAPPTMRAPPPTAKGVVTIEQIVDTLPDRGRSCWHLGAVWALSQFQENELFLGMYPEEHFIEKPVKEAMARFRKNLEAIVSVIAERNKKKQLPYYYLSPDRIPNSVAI
The assay is described as follows: Inhibition of recombinant human N-terminal His-tagged 5-LOX expressed in Escherichia coli assessed as conversion of arachidonic acid to HpETEs measured for 300 secs by UV-visible spectrophotometric analysis.

The subject of assay [2] is Mus musculus. The assay is described as follows: Anti-inflammatory activity in LPS-induced C57BL/6 mouse model of acute lung injury assessed as reduction in protein concentration in BALF at 25 mg/kg, ip pretreated for 1 hr followed LPS challenge measured after 24 hrs. It counts as functional, organism-based.
The test system of assay [3] is Mus musculus. The assay is described as follows: Anti-inflammatory activity in LPS-induced C57BL/6 mouse model of acute lung injury assessed as reduction MPO activity at 25 mg/kg, ip pretreated for 1 hr followed LPS challenge measured after 24 hrs. The format is functional, organism-based.
The test system of assay [4] is Mus musculus. The experiment in a line: Anti-inflammatory activity in LPS-induced C57BL/6 mouse model of acute lung injury assessed as reduction in pulmonary edema by measuring lung wet/dry ratio at 25 mg/kg, ip pretreated for 1 hr followed LPS challenge after 24 hrs […]. It counts as functional, organism-based.
The subject of assay [5] is Mus musculus. The assay is described as follows: Anti-inflammatory activity in BLM-induced C57BL/6 mouse model of acute lung neutrophilic inflammation assessed as reduction in number of neutrophils in BALF at 10 and 25 mg/kg, ip qd for 7 days post BLM challenge measured on day 7. The format is functional, organism-based.
Assay [6] deals with Mus musculus. The experiment in a line: Anti-inflammatory activity in BLM-induced C57BL/6 mouse model of acute lung injury assessed as reduction in IL-6 mRNA level in BALF compound administered intraperitoneally once daily for 7 days post BLM challenge measured on day 7 by qRT-PCR method. It counts as functional.
Assay [7] has as its target T2, Leukotriene A-4 hydrolase (Mus musculus, UniProt P24527).
T2 sequence (P24527 whole entry): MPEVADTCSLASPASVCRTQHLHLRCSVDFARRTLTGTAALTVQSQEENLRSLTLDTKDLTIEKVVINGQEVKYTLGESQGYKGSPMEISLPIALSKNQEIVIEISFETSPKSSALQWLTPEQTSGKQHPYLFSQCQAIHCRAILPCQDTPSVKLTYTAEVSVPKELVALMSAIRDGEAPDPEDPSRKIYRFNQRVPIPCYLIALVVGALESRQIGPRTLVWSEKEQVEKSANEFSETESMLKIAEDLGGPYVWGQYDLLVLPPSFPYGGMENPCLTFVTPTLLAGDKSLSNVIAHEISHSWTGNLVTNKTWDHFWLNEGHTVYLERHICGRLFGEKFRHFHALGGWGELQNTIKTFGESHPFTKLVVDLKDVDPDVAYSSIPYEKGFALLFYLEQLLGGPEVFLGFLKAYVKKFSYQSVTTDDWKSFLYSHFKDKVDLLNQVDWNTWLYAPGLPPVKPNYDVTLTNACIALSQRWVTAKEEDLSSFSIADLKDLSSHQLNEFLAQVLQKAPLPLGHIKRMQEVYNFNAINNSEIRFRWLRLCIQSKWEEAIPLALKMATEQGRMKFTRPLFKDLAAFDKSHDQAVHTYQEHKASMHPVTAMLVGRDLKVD
The assay is described as follows: Inhibition of LTA4H in C57BL/6 mouse assessed as reduction in LTB4 production pre-incubated for 30 mins before 5-(methylamino)-2-({(2R,3R,6S,8S,9R,11R)-3,9,11-trimethyl-8-[(1S)-1-methyl-2-oxo-2-(1H-pyrrol-2-yl)ethyl]-1,7-dioxaspiro[5.5]undec-2-yl}methyl)-1,3-benzoxazole-4-carboxylic acid stimulation for 30 mins by ELISA.

The test system of assay [8] is Mus musculus. The experiment in a line: Protection against BLM-induced lung fibrosis in C57BL/6 mouse assessed as TGF-beta1 level at 10 and 25 mg/kg, ip qd for 7 days post BLM challenge measured on day 14 by qRT-PCR method. It counts as functional, organism-based.
Assay [9] concerns the target T3, Leukotriene A-4 hydrolase (Homo sapiens) (UniProt P09960).
T3 sequence (whole entry): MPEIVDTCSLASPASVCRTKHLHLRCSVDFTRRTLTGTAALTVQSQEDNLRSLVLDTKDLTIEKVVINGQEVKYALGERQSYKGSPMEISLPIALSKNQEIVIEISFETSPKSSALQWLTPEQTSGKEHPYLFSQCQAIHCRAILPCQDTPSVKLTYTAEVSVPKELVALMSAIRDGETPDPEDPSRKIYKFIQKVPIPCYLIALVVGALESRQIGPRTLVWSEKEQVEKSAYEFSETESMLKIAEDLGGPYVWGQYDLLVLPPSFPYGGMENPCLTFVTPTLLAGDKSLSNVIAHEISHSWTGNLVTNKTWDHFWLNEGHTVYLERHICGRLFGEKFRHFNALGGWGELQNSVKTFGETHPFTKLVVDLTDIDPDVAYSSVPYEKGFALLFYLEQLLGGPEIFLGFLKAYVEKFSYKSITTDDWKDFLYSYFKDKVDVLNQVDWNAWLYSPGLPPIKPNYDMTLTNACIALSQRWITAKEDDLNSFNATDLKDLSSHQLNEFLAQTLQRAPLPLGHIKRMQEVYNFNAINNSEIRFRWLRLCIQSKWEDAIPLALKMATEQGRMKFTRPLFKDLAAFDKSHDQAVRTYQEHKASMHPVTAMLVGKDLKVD
Description: Binding affinity to recombinant human LTA4H hydrolase assessed as change in melting temperature at 50 uM by SYPRO orange dye-based thermofluor assay

In assay [10] the target is T3, Leukotriene A-4 hydrolase (Homo sapiens). Particulars: at 10 µM.
Description: Inhibition of recombinant human LTA4H Epoxide Hydrolase expressed in Escherichia coli BL21 (DE3) pLysS at 10 uM preincubated for 10 mins followed by addition of LTA4 as substrate measured after 15 mins by reverse-phase HPLC analysis
Assay [11] deals with Mus musculus. The experiment in a line: Anti-inflammatory activity in LPS-induced C57BL/6 mouse model of acute lung injury assessed as reduction in IL-6 mRNA level pretreated intraperitoneally for 1 hr followed LPS challenge after 24 hrs by qRT-PCR method. The format is functional.
The subject of assay [12] is Mus musculus. The assay is described as follows: Anti-inflammatory activity in BLM-induced C57BL/6 mouse model of acute lung neutrophilic inflammation assessed as MPO activity at 50 mg/kg, ip qd for 7 days post BLM challenge measured on day 7 (reference value: 0.98 U/g). The format is functional.

Active and inactive are the calls of the source. The calls are words filed in the database; no cut-off is given here.

Turning to `CN(C)c1ccc(C(=O)NCCCCCCC(=O)NO)cc1`, the INH in assay [1] was over 50 µM. Also, the result with Mus musculus [2], in the assay on Mus musculus [3], in the assay on Mus musculus [4], with Mus musculus [5] and with Mus musculus [8] was Active. The Activity result with Mus musculus [6] was “Dose-dependent effect”. For the same molecule, the IC50 in assay [7] is 0.79 µM. The ΔTm in [9] came to 2.35 °C. In assay [10], this molecule had an inhibition of over 50%.
In the case of `O=C(CCCCCCC(=O)Nc1ccccc1)NO` [VORINOSTAT], in assay [1], the INH is over 50 µM. Also, the Activity entry with Mus musculus [11] is “Dose-dependent effect”; with Mus musculus [12], 0.67 U/g; in the assay with Mus musculus [6] it was “Dose-dependent effect”. In addition, the result with Mus musculus [2], with Mus musculus [3], with Mus musculus [4] and in the assay with Mus musculus [5] was Active. Moreover, the IC50 in [7] came to 6.15 µM. For the same molecule, the ΔTm in assay [9] was 1.47 °C. Moreover, the inhibition in assay [10] is over 50%.
